One data set concerns platelets. Kind of data set: Effect of compounds on platelet aggregation caused by collagen. Format: cell-based, healthy volunteers. The conditions noted are these: Homo sapiens, collagen 1 μg/ml, read-out: inhibition rate of platelet aggregation. The protocol: Effect of compounds on platelet aggregation
Using platelets obtained from healthy volunteers, effect of compounds on platelet aggregation caused by collagen (1 μg/ml) was examined.

Data set [1] has as its system coronary and femoral blood flow. Kind of data set: Effect of compounds on coronary and femoral blood flow in anesthetized dogs. The data set is classed as in vivo, mongrel dogs. As to conditions: intraarterial. The procedure: Effect of compounds on coronary and femoral blood flow
Using male and femal mongrel dogs thoracotomized at the left 4th intercostal space under artificial respiration and inhalation anesthesia with Halothane, effect of coronary and femoral blood flow was examined by intrarterial administration. By placing an electromagnetic flowprobe around the left circumflex coronary artery and the femoral artery, the blood flows of both arteries were measured. Shallow catheters were inserted in and fixed to the arterial branch distal to the flowprobe and the test compounds were intrarterially administered through the catheters. In this case, the blood pressure, the heart rate and the cardiac contractility were also recorded simultaneously. Each test compound was used by dissolving it in physiological saline, diluted hydrochloric acid or polyethylene glycol in a dose not accompanied by any change in the blood pressure, the heart rate and the cardiac contractility.

In another data set the test system is Anesthetized Dog. Nature of the data set: Effect of compounds on cardiac contractility, heart rate and blood pressure in Anesthetized Dog. The conditions noted are these: intravenous. The data set is classed as in vivo, mongrel dogs. The protocol: Effect of compounds on cardiac contractility in Anesthetized Dog
Using male and female mongrel dogs subjected to artificial respiration and anesthetized by inhalation of Halothane cardiotonic effect of compounds was examined. The aortic pressure and the left ventricular pressure were recorded with a catheter inserted from the femoral artery into the aorta of the chest and with a micro tip pressure transducer (Millar) inserted from the carotid into the left ventricle, respectively. The heart rate was monitored by means of a tachograph triggered by the left ventricular pressure pulse. As an index of cardiac contractility, a primary differentation (LV dp/dt max) of the left ventricular pressure pulse was recorded. The test compounds were dissolved in physiological saline or diluted hydrochloric acid or polyethylene glycol and the solutions were intravenously given through the catheter inserted into the femoral vein.
Percent changes by the test compounds in cardiac contractility, heart rate and blood pressure obtained by the foregoing method are shown in Table 2, when compared to those prior to administration of the test compounds. In Table 2, the test compounds are those prepared in the examples later described.

The subject of data set [2] is isolated Guinea Pig heart muscles. Nature of the data set: Effects of compounds on contractile response of isolated Guinea Pig heart muscles (right ventricular papillary muscles). The conditions noted are these: Cavia porcellus, read-out: Contractilities; for activation at 100 µM: Concentration 10^-4 M; for activation at 10 µM: Concentration 10^-5 M; for activation at 1 µM: Concentration 10^-6 M. The procedure: Effects of compounds on contractile response of isolated Guinea Pig heart muscles
Male guinea pigs weighing 300 to 500 g were stunned with a blow on the head and exsanguinated. The chest was opened rapidly, the heart was excised and papillary muscles from the right ventricle were excised.
The preparations were mounted in 10 ml organ bath which were filled with Krebs-Henseleit solution maintained at 36° C. and oxygenated with 95% O2 -5% CO2.
Right ventricular papillary muscles were stimulated electrically at a rate of 1 Hz by a suprathreshold (1.2×threshold) rectangular pulse 3 ms in duration. The resting tension applied to the papillary muscles was adjusted to produce maximum developed tension. The developed tension was recorded isometrically by means of force-displacement transducer. The text compounds were dissolved in diluted hydrochloric acid and were added to the bath. Contractility after administration was compared to that prior to administration.
The test compounds are those prepared in the examples later described.

In a further data set the test system is rats. Kind of data set: Acute toxicity test by oral administration in rats. Format: in vivo. The conditions noted are these: 3 g/kg, 4 in each group. The procedure: (§1) Acute toxicity was tested by oral administration in rats and mice. The results reveal that the compounds of the present invention have extremely low toxicity.
Another data set deals with mice. Kind of data set: Acute toxicity test by oral administration in mice. Format: in vivo. As to conditions: 3 g/kg, 4 in each group. The protocol: as §1

Molecules are shown by their SMILES.

With `Cc1[nH]c(=O)c(C#N)cc1-c1ccc2nccn2c1` [Example 1, 1,2-Dihydro-5-(imidazo[1,2-a]pyridin-6-yl)-6-methyl-2-oxo-3-pyridinecarbonitrile], the inhibition at 1 µM with platelets (1×10^-6 M) was 41%. Also, the inhibition at 3 µM in the data set with platelets (3×10^-6 M) worked out at 90%. The inhibition at 0.3 µM with platelets (3×10^-7 M) was found to be 14%. Further, in data set [1] (dose 3 ug), the “Coronary Blood Flow” value is 25 Δ% and the “Femoral Blood Flow” value is reported as 18 Δ%. In addition, in data set [1] (dose 10 ug), the “Coronary Blood Flow” value is recorded as 63 Δ% and the “Femoral Blood Flow” value is on record as 51 Δ%. Also, the “Femoral Blood Flow” value in data set [1] (dose 30 ug) was 76 Δ%. Also, in the data set on Anesthetized Dog (10 μg/kg), the “Change in Blood Pressure” value is 0%, the “Change in Cardiac Contractility (LV dp/dt max)” value (“Change in Cardiac Contractility” for short) is on record as 16% and the “Change in Heart Rate” value was found to be 6%. In the data set on Anesthetized Dog (30 μg/kg), the “Change in Blood Pressure” value was -5%, the “Change in Cardiac Contractility” value was 68% and the “Change in Heart Rate” value was found to be 15%. Moreover, in the data set on Anesthetized Dog (100 μg/kg), the “Change in Blood Pressure” value is listed as -17%, the “Change in Cardiac Contractility” value was 97% and the “Change in Heart Rate” value was 22%. In data set [2], the activation at 100 µM was determined as 129%, the activation at 10 µM is 88% and the activation at 1 µM was determined as 40.7%. The “death in acute toxicity test” value in the data set with rats was “no death was noted”. Moreover, the “death in acute toxicity test” value with mice is “no death was noted”.
For the compound `CCc1[nH]c(=O)c(C#N)cc1-c1ccc2nc(C)cn2c1` [Example 2, 1,2-Dihydro-6-ethyl-5-(2-methylimidazo[1,2-a]pyridin-6-yl)-2-oxo-3-pyridinecarbonitrile], in data set [2], the activation at 100 µM was 106%, the activation at 10 µM was 73.5% and the activation at 1 µM was determined as 34.1%.
Regarding `CCc1[nH]c(=O)c(C#N)cc1-c1ccc2nccn2c1` [Example 6, 1,2-Dihydro-6-ethyl-5-(imidazo[1,2-a]pyridin-6-yl)-2-oxo-3-pyridinecarbonitrile], in the data set with Anesthetized Dog (10 μg/kg), the “Change in Blood Pressure” value is -1%, the “Change in Cardiac Contractility” value is listed as 14% and the “Change in Heart Rate” value is recorded as 0%. For the same compound, in the data set with Anesthetized Dog (30 μg/kg), the “Change in Blood Pressure” value is -2%, the “Change in Cardiac Contractility” value came to 30% and the “Change in Heart Rate” value is given as 5%. In the data set with Anesthetized Dog (100 μg/kg), the “Change in Blood Pressure” value is reported as -7%, the “Change in Cardiac Contractility” value amounted to 58% and the “Change in Heart Rate” value turned out to be 10%.
Take `Cc1cn2cc(-c3cc(C#N)c(=O)[nH]c3C)ccc2n1` [Example 7, 1,2-Dihydro-6-methyl-5-(2-methylimidazo[1,2-a]pyridin-6-yl)-2-oxo-3-pyridinecarbonitrile]: in the data set on Anesthetized Dog (10 μg/kg), the “Change in Blood Pressure” value was 0%, the “Change in Cardiac Contractility” value is 21% and the “Change in Heart Rate” value is on record as 8%. In the data set on Anesthetized Dog (30 μg/kg), the “Change in Blood Pressure” value is -13%, the “Change in Cardiac Contractility” value came to 114% and the “Change in Heart Rate” value amounted to 18%. In data set [2], the activation at 100 µM is 130%, the activation at 10 µM was 95.7% and the activation at 1 µM worked out at 56.7%.
In the case of `Cc1[nH]c(=O)ccc1-c1ccc2nccn2c1` [Example 10, 1,2-Dihydro-6-methyl-5-(imidazo[1,2-a]pyridin-6-yl)-2-oxo-pyridine], in the data set with Anesthetized Dog (10 μg/kg), the “Change in Blood Pressure” value is -2%, the “Change in Cardiac Contractility” value was 11% and the “Change in Heart Rate” value worked out at 2%. For the same compound, in the data set with Anesthetized Dog (30 μg/kg), the “Change in Blood Pressure” value is -5%, the “Change in Cardiac Contractility” value amounted to 25% and the “Change in Heart Rate” value was 4%. Besides, in data set [2], the activation at 100 µM is 110%, the activation at 10 µM is 76.3% and the activation at 1 µM was 37.9%.
For `COc1nc(C)c(-c2ccc3nccn3c2)cc1C#N` [Example 14, 5-(Imidazo[1,2-a]pyridin-6-yl)-2-methoxy-6-methyl-3-pyridinecarbonitrile], in the data set on Anesthetized Dog (300 μg/kg), the “Change in Blood Pressure” value is given as -6%, the “Change in Cardiac Contractility” value is listed as 10% and the “Change in Heart Rate” value stood at 6%. Besides, in the data set on Anesthetized Dog (1000 μg/kg), the “Change in Blood Pressure” value was -4%, the “Change in Cardiac Contractility” value was 41% and the “Change in Heart Rate” value is 0%.
